Measured values taken from US11117900B2 (Vertex Pharmaceuticals Incorporated, priority 2012, dated 2021).

What follows are compounds tested on HCT116 colorectal cancer cells (assay: Cisplatin sensitization assay (96 h MTS cell viability)). Conditions: Cisplatin sensitization value.
Type: cell-based
Outline: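 The MTS viability read, after 1 h with reagent, followed 96 h of co-treatment at 37° C. in 5% CO2. Both compound and cisplatin were titrated 2-fold from a 10 μM top final concentration in a complete concentration matrix on HCT116 cells. Scores +++/++/+ reflect cisplatin sensitization value ranges.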
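Also: compound concentration needed to lower the IC50 of Cisplatin alone by a set fold.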

SMILES | Cisplatin Sensitization Assay
CS(=O)(=O)C1CN(C(=O)C2CCN(c3c(F)cncc3NC(=O)c3c(N)nn4cc(F)cnc34)CC2)C1 [I-G-86, 2-amino-6-fluoro-N-(5-fluoro-4-(4-(3-(methylsulfonyl)azetidine-1-carbonyl)piperidin-1-yl)pyridin-3-yl)pyrazolo[1,5-a]pyrimidine-3-carboxamide] | +++ (Compounds with a Cisplatin sensitization value of <0.02 μM are marked with “+++.”)
C[C@@H]1CN(C(=O)C2CCN(c3c(F)cncc3NC(=O)c3c(N)nn4cc(F)cnc34)CC2)CCN1C [I-G-50, (R)-2-amino-N-(4-(4-(3,4-dimethylpiperazine-1-carbonyl)piperidin-1-yl)-5-fluoropyridin-3-yl)-6-fluoropyrazolo[1,5-a]pyrimidine-3-carboxamide] | +++ (Compounds with a Cisplatin sensitization value of <0.02 μM are marked with “+++.”)
Nc1nn2cc(F)cnc2c1C(=O)Nc1cncc(F)c1N1CCCC1 [I-N-246, 2-amino-6-fluoro-N-(5-fluoro-4-(pyrrolidin-1-yl)pyridin-3-yl)pyrazolo[1,5-a]pyrimidine-3-carboxamide] | ++ (Compounds with a Cisplatin sensitization value >0.02 μM but <0.2 μM are marked with “++.”)
CN1CC[C@H](Oc2ccncc2NC(=O)c2c(N)nn3cc(F)cnc23)C1 [I-O-1, (S)-2-amino-6-fluoro-N-(4-((1-methylpyrrolidin-3-yl)oxy)pyridin-3-yl)pyrazolo[1,5-a]pyrimidine-3-carboxamide] | +++ (Compounds with a Cisplatin sensitization value of <0.02 μM are marked with “+++.”)
Nc1nn2cc(F)cnc2c1C(=O)Nc1cncc(F)c1N1CCC(C(=O)N2CCNCC2)CC1 [I-G-12, 2-amino-6-fluoro-N-(5-fluoro-4-(4-(piperazine-1-carbonyl)piperidin-1-yl)pyridin-3-yl)pyrazolo[1,5-a]pyrimidine-3-carboxamide] | +++ (Compounds with a Cisplatin sensitization value of <0.02 μM are marked with “+++.”)
CN(C)CCOc1ccncc1NC(=O)c1c(N)nn2cc(CC#N)cnc12 [I-O-24, 2-amino-6-(cyanomethyl)-N-(4-(2-(dimethylamino)ethoxy)pyridin-3-yl)pyrazolo[1,5-a]pyrimidine-3-carboxamide] | ++ (Compounds with a Cisplatin sensitization value >0.02 μM but <0.2 μM are marked with “++.”)
CN1CC(NC(=O)C2CCN(c3c(F)cncc3NC(=O)c3c(N)nn4cc(F)cnc34)CC2)C1 [I-G-23, 2-amino-6-fluoro-N-(5-fluoro-4-(4-((1-methylazetidin-3-yl)carbamoyl)piperidin-1-yl)pyridin-3-yl)pyrazolo[1,5-a]pyrimidine-3-carboxamide] | +++ (Compounds with a Cisplatin sensitization value of <0.02 μM are marked with “+++.”)
Nc1nn2cc(F)cnc2c1C(=O)Nc1cnccc1OC1CN2CCC1CC2 (racemic) [I-O-6, (R,S)-2-amino-6-fluoro-N-(4-(quinuclidin-3-yloxy)pyridin-3-yl)pyrazolo[1,5-a]pyrimidine-3-carboxamide] | +++ (Compounds with a Cisplatin sensitization value of <0.02 μM are marked with “+++.”)
Nc1nn2cc(F)cnc2c1C(=O)Nc1cncc(F)c1N1CCC(S(=O)(=O)N2CCOCC2)CC1 [I-N-155, 2-amino-6-fluoro-N-(5-fluoro-4-(4-(morpholinosulfonyl)piperidin-1-yl)pyridin-3-yl)pyrazolo[1,5-a]pyrimidine-3-carboxamide] | +++ (Compounds with a Cisplatin sensitization value of <0.02 μM are marked with “+++.”)
N#CCc1cnc2c(C(=O)Nc3cnccc3OC3CCCC3)c(N)nn2c1 [I-O-43, 2-amino-6-(cyanomethyl)-N-(4-(cyclopentyloxy)pyridin-3-yl)pyrazolo[1,5-a]pyrimidine-3-carboxamide] | +++ (Compounds with a Cisplatin sensitization value of <0.02 μM are marked with “+++.”)
Nc1nn2cc(F)cnc2c1C(=O)Nc1cnccc1Oc1cccnc1 [I-O-7, 2-amino-6-fluoro-N-(4-(pyridin-3-yloxy)pyridin-3-yl)pyrazolo[1,5-a]pyrimidine-3-carboxamide] | ++ (Compounds with a Cisplatin sensitization value >0.02 μM but <0.2 μM are marked with “++.”)
Nc1nn2cc(F)cnc2c1C(=O)Nc1cncc(C2CC2)c1N1CCN([C@H]2CCOC2)CC1 [I-N-120, (S)-2-amino-N-(5-cyclopropyl-4-(4-(tetrahydrofuran-3-yl)piperazin-1-yl)pyridin-3-yl)-6-fluoropyrazolo[1,5-a]pyrimidine-3-carboxamide] | +++ (Compounds with a Cisplatin sensitization value of <0.02 μM are marked with “+++.”)
Cc1nnc(N2CCN(c3ccncc3NC(=O)c3c(N)nn4cc(F)cnc34)CC2)o1 [I-N-256, 2-amino-6-fluoro-N-(4-(4-(5-methyl-1,3,4-oxadiazol-2-yl)piperazin-1-yl)pyridin-3-yl)pyrazolo[1,5-a]pyrimidine-3-carboxamide] | ++ (Compounds with a Cisplatin sensitization value >0.02 μM but <0.2 μM are marked with “++.”)
Nc1nn2cc(F)cnc2c1C(=O)Nc1cncc(Cl)c1N1CCN2CCN(C3COC3)CC2C1 (stereo not drawn) [I-N-38, 2-amino-N-(5-chloro-4-(8-(oxetan-3-yl)hexahydro-1H-pyrazino[1,2-a]pyrazin-2(6H)-yl)pyridin-3-yl)-6-fluoropyrazolo[1,5-a]pyrimidine-3-carboxamide] | ++ (Compounds with a Cisplatin sensitization value >0.02 μM but <0.2 μM are marked with “++.”)
COC1CN(C(=O)C2CCN(c3c(F)cncc3NC(=O)c3c(N)nn4cc(F)cnc34)CC2)C1 [I-G-21, 2-amino-6-fluoro-N-(5-fluoro-4-(4-(3-methoxyazetidine-1-carbonyl)piperidin-1-yl)pyridin-3-yl)pyrazolo[1,5-a]pyrimidine-3-carboxamide] | +++ (Compounds with a Cisplatin sensitization value of <0.02 μM are marked with “+++.”)
Cc1nccn1-c1ccncc1NC(=O)c1c(N)nn2cc(F)cnc12 [I-N-28, 2-amino-6-fluoro-N-(4-(2-methyl-1H-imidazol-1-yl)pyridin-3-yl)pyrazolo[1,5-a]pyrimidine-3-carboxamide] | +++ (Compounds with a Cisplatin sensitization value of <0.02 μM are marked with “+++.”)
Nc1nn2cc(F)cnc2c1C(=O)Nc1cncc(F)c1N1CCC(N2CCCC2=O)CC1 [I-N-147, 2-amino-6-fluoro-N-(5-fluoro-4-(4-(2-oxopyrrolidin-1-yl)piperidin-1-yl)pyridin-3-yl)pyrazolo[1,5-a]pyrimidine-3-carboxamide] | +++ (Compounds with a Cisplatin sensitization value of <0.02 μM are marked with “+++.”)
CN1CCN(c2c(F)cncc2NC(=O)c2c(N)nn3cc(Cl)cnc23)CC1 [I-N-14, 2-amino-6-chloro-N-(5-fluoro-4-(4-methylpiperazin-1-yl)pyridin-3-yl)pyrazolo[1,5-a]pyrimidine-3-carboxamide] | +++ (Compounds with a Cisplatin sensitization value of <0.02 μM are marked with “+++.”)
Cn1ccnc1-c1ccncc1NC(=O)c1c(N)nn2cc(F)cnc12 [I-C-55, 2-amino-6-fluoro-N-(4-(1-methyl-1H-imidazol-2-yl)pyridin-3-yl)pyrazolo[1,5-a]pyrimidine-3-carboxamide] | + (Compounds with a Cisplatin sensitization value >0.2 μM but <5 μM are marked with “+.”)
COc1cncc(NC(=O)c2c(N)nn3cc(F)cnc23)c1C1CC1 [I-C-84, 2-amino-N-(4-cyclopropyl-5-methoxypyridin-3-yl)-6-fluoropyrazolo[1,5-a]pyrimidine-3-carboxamide] | ++ (Compounds with a Cisplatin sensitization value >0.02 μM but <0.2 μM are marked with “++.”)
CN1CCN(c2ccncc2NC(=O)c2c(N)nn3cc(CC#N)cnc23)CC1 [I-N-82, 2-amino-6-(cyanomethyl)-N-(4-(4-methylpiperazin-1-yl)pyridin-3-yl)pyrazolo[1,5-a]pyrimidine-3-carboxamide] | ++ (Compounds with a Cisplatin sensitization value >0.02 μM but <0.2 μM are marked with “++.”)
Cn1ncnc1-c1ccncc1NC(=O)c1c(N)nn2cc(F)cnc12 [I-C-65, 2-amino-6-fluoro-N-(4-(1-methyl-1H-1,2,4-triazol-5-yl)pyridin-3-yl)pyrazolo[1,5-a]pyrimidine-3-carboxamide] | ++ (Compounds with a Cisplatin sensitization value >0.02 μM but <0.2 μM are marked with “++.”)
Nc1nn2cc(F)cnc2c1C(=O)Nc1cnccc1-c1ccc(C(=O)N2CCNCC2)cc1 [I-C-44, 2-amino-6-fluoro-N-(4-(4-(piperazine-1-carbonyl)phenyl)pyridin-3-yl)pyrazolo[1,5-a]pyrimidine-3-carboxamide] | +++ (Compounds with a Cisplatin sensitization value of <0.02 μM are marked with “+++.”)
N#CCc1cnc2c(C(=O)Nc3cnccc3OCCN)c(N)nn2c1 [I-O-83, 2-amino-N-(4-(2-aminoethoxy)pyridin-3-yl)-6-(cyanomethyl)pyrazolo[1,5-a]pyrimidine-3-carboxamide] | +++ (Compounds with a Cisplatin sensitization value of <0.02 μM are marked with “+++.”)
CC(=O)N1CCN(c2c(F)cncc2NC(=O)c2c(N)nn3cc(F)cnc23)CC1 [I-N-275, N-(4-(4-acetylpiperazin-1-yl)-5-fluoropyridin-3-yl)-2-amino-6-fluoropyrazolo[1,5-a]pyrimidine-3-carboxamide] | +++ (Compounds with a Cisplatin sensitization value of <0.02 μM are marked with “+++.”)
Cc1ncnn1-c1c(F)cncc1NC(=O)c1c(N)nn2cc(F)cnc12 [I-N-242, 2-amino-6-fluoro-N-(5-fluoro-4-(5-methyl-1H-1,2,4-triazol-1-yl)pyridin-3-yl)pyrazolo[1,5-a]pyrimidine-3-carboxamide] | + (Compounds with a Cisplatin sensitization value >0.2 μM but <5 μM are marked with “+.”)
COC1CCN(c2ccncc2NC(=O)c2c(N)nn3cc(F)cnc23)CC1 [I-N-266, 2-amino-6-fluoro-N-(4-(4-methoxypiperidin-1-yl)pyridin-3-yl)pyrazolo[1,5-a]pyrimidine-3-carboxamide] | +++ (Compounds with a Cisplatin sensitization value of <0.02 μM are marked with “+++.”)
